# From paper PMC11035515 (Drugs in R&D, 2023)
# Values joined by “and” are separate entries in the source; they are usually repeats but may differ in a detail not shown here. Identical values can stand only once. Marks after values point to notes of the source that are not given here.
# Experiments:
# CYP3A4 [1] = assay: Study 2
# CYP2D6 [2] = target: T1, CYP2D6 (Homo sapiens, UniProt P10635); assay: Study 2; conditions: for CL/F: mean ± SD; for Increase of exposure (AUC) by esmethadone: dextromethorphan + esmethadone 75 mg vs dextromethorphan alone; for Cmax: po
# T1 sequence (P10635 whole entry): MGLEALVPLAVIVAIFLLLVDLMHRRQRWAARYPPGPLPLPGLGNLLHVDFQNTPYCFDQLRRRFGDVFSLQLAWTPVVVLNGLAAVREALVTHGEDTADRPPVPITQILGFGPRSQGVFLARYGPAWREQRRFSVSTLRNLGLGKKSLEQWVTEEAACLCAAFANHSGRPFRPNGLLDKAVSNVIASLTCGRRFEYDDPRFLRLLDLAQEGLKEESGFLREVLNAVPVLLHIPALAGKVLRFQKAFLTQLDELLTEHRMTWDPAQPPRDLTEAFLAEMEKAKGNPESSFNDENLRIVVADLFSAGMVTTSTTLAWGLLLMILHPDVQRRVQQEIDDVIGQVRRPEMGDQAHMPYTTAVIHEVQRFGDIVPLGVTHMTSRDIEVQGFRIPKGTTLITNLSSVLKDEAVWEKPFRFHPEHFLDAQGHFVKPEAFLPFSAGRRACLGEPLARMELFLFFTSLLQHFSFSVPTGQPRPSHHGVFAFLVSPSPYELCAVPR
# CYP1A2 [3] = assay: in vitro; type: in vitro ADME; conditions: human
# CYP2B6 [4] = assay: in vitro; type: in vitro ADME; conditions: human
# CYP2C8 [5] = assay: in vitro; type: in vitro ADME; conditions: human
# CYP2C9 [6] = assay: in vitro; type: in vitro ADME; conditions: human
# CYP3A4 [7] = assay: CYP3A4 induction in cryopreserved human hepatocytes; type: in vitro ADME; conditions: mean of three donors
# OCT1 = OCT1 (Homo sapiens, UniProt O15245); assay: Uptake transporter assay in transfected HEK293 cells, OCT1 inhibition; type: in vitro ADME
# P-glycoprotein (P-gp) = P-glycoprotein (P-gp) (Homo sapiens, UniProt P08183); assay: Efflux transporter assay in Caco-2 cells, P-gp inhibition; type: in vitro ADME
# Study 1 = type: in vivo, human; conditions: single 25-mg oral dose of [14C]-esmethadone
# CYP1A2 [8] = target: CYP1A2 (Homo sapiens, UniProt P05177); conditions: HLM, esmethadone 0.2–200 μM
# CYP2B6 [9] = target: T2, CYP2B6 (Homo sapiens, UniProt P20813); conditions: HLM, esmethadone 0.2–200 μM
# T2 sequence (P20813 whole entry): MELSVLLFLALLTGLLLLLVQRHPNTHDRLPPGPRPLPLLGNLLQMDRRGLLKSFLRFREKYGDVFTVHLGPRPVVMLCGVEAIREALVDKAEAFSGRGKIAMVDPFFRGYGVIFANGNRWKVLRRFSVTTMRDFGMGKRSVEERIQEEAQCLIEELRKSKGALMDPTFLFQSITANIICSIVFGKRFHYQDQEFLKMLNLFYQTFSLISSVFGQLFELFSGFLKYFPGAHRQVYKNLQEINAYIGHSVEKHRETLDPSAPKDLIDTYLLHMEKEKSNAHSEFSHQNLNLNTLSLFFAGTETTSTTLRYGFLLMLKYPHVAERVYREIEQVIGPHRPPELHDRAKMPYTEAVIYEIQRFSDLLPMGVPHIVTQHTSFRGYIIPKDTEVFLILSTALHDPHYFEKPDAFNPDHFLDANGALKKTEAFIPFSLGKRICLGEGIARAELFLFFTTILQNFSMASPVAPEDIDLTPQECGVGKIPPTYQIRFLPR
# CYP2C8 [10] = target: T3, CYP2C8 (Homo sapiens, UniProt P10632); conditions: HLM, esmethadone 0.2–200 μM
# T3 sequence (P10632 whole entry): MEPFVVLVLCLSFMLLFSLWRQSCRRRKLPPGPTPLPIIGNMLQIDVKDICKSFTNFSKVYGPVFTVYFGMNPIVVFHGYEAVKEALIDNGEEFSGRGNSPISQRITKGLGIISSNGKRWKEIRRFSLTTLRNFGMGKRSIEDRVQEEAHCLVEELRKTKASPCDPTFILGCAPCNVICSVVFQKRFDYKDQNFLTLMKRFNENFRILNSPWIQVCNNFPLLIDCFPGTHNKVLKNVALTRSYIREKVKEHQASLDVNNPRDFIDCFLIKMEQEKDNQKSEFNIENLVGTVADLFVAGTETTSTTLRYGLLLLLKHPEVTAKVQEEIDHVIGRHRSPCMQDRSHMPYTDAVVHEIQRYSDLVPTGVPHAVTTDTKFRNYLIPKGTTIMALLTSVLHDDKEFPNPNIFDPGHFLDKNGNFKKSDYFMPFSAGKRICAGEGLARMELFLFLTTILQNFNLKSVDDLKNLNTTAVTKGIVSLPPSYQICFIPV
# CYP2C9 [11] = target: T4, CYP2C9 (Homo sapiens, UniProt P11712); conditions: HLM, esmethadone 0.2–200 μM
# T4 sequence (P11712 whole entry): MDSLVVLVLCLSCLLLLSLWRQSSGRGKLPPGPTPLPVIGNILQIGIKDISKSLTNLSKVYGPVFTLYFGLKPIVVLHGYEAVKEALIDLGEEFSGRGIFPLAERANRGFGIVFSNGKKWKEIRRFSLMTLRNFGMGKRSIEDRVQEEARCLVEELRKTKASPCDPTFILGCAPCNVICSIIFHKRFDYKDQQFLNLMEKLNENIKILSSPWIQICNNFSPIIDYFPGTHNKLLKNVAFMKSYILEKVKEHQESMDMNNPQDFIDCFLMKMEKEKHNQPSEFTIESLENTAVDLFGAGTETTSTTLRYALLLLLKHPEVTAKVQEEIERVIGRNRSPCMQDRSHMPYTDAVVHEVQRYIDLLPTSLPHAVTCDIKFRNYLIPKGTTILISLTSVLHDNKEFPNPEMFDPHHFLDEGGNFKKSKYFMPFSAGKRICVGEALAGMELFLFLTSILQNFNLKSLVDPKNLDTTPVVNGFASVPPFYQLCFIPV
# CYP2C19 [12] = target: T5, CYP2C19 (Homo sapiens, UniProt P33261); conditions: HLM, esmethadone 0.2–200 μM
# T5 sequence (P33261 whole entry): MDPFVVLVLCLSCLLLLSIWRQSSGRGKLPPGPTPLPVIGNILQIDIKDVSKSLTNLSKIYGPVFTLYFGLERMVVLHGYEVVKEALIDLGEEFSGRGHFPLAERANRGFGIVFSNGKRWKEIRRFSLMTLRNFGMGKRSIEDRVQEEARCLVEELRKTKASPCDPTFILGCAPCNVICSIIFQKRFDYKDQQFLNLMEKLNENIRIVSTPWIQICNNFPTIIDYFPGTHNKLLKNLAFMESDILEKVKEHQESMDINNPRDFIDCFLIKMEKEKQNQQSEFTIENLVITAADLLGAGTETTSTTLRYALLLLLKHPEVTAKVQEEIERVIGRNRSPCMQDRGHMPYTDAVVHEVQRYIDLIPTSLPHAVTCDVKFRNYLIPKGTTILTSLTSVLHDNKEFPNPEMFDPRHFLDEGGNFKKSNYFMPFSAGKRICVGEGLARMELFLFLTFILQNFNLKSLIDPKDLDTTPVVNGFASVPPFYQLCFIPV
# [13] = cited from earlier work
# CYP2B6 [14] = target: T2, CYP2B6; assay: biochemical
# CYP2C8 [15] = target: T3, CYP2C8; assay: biochemical
# CYP2C9 [16] = target: T4, CYP2C9; assay: biochemical
# CYP2C19 [17] = target: T5, CYP2C19; assay: biochemical
# [18] = target: human recombinant UGT2B15 (Homo sapiens, UniProt P54855); assay: Inhibition of UGT2B15 in Supersomes
# human recombinant UGT2B15, sequence (P54855 24-530): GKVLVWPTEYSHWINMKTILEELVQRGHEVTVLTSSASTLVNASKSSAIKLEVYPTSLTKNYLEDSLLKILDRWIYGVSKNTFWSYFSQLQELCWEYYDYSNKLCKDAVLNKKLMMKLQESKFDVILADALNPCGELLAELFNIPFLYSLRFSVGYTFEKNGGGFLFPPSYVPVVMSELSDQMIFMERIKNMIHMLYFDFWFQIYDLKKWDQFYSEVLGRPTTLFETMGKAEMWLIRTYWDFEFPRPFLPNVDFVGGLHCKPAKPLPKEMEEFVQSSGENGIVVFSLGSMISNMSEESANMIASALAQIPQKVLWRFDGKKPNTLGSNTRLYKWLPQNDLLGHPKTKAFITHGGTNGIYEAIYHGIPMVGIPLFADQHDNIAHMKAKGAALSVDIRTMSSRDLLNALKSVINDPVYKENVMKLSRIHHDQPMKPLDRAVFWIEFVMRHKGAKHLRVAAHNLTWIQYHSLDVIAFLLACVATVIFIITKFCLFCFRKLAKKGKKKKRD
# [19] = Study 2 treatment-emergent adverse events; conditions: healthy participants, alone or in combination with dextromethorphan and midazolam
# UGT1A1 = UGT1A1 (Homo sapiens, UniProt P22309); assay: Inhibition of UGT1A1 in human liver microsomes
# UGT1A1, sequence (P22309 26-533): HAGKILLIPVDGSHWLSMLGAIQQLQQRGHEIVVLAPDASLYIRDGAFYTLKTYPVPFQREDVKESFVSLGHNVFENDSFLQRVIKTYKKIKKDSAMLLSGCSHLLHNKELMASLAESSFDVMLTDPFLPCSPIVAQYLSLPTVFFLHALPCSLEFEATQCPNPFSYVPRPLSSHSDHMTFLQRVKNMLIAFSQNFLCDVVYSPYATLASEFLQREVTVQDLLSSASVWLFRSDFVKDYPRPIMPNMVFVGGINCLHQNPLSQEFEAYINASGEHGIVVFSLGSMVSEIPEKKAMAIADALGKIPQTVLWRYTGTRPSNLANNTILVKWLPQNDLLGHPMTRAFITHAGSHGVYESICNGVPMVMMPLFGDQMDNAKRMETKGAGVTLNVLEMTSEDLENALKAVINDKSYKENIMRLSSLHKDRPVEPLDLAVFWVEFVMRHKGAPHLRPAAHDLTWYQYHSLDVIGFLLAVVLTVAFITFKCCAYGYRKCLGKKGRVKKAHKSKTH
# UGT1A3 = UGT1A3 (Homo sapiens, UniProt P35503); assay: Inhibition of UGT1A3 in human liver microsomes
# UGT1A3, sequence (P35503 29-534): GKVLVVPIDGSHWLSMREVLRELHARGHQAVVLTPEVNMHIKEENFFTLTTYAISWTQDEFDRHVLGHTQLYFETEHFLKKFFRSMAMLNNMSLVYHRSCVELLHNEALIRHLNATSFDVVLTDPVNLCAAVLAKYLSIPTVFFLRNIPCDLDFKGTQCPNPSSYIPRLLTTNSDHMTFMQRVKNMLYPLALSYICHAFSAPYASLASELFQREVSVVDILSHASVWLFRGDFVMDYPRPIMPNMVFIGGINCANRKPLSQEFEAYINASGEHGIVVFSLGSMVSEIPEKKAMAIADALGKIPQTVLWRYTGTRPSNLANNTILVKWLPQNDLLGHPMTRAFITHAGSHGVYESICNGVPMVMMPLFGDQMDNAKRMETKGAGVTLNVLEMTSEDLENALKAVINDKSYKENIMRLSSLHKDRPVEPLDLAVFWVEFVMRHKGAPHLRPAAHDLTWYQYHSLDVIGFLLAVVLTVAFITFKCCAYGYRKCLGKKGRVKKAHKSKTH
# UGT1A4 = UGT1A4 (Homo sapiens, UniProt P22310); assay: Inhibition of UGT1A4 in human liver microsomes
# UGT1A6 = UGT1A6 (Homo sapiens, UniProt P19224); assay: Inhibition of UGT1A6 in human liver microsomes; conditions: HLM
# UGT1A9 = UGT1A9 (Homo sapiens, UniProt O60656); assay: Inhibition of UGT1A9 in human liver microsomes
# UGT2B7 = UGT2B7 (Homo sapiens, UniProt P16662); assay: Inhibition of UGT2B7 in human liver microsomes
# UGT2B7, sequence (P16662 24-529): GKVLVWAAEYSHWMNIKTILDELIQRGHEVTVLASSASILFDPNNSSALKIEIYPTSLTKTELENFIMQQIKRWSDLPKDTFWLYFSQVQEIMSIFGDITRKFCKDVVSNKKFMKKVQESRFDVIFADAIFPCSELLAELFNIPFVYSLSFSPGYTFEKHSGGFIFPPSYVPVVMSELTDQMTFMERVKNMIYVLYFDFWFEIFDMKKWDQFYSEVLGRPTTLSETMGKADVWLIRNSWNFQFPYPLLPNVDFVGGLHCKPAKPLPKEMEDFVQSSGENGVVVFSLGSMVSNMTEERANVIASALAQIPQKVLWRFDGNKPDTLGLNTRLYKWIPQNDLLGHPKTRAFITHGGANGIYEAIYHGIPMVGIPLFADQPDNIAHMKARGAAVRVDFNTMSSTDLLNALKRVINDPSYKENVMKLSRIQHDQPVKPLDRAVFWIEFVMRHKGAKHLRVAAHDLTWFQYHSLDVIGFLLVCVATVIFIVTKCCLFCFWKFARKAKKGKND
# [20] = Microsomal protein binding by equilibrium dialysis; conditions: 5 h at 37 °C in HLM
# CYP2A6 = CYP2A6 (Homo sapiens, UniProt P11509); assay: Direct inhibition of CYP2A6 in human liver microsomes
# CYP2A6, sequence (P11509 whole entry): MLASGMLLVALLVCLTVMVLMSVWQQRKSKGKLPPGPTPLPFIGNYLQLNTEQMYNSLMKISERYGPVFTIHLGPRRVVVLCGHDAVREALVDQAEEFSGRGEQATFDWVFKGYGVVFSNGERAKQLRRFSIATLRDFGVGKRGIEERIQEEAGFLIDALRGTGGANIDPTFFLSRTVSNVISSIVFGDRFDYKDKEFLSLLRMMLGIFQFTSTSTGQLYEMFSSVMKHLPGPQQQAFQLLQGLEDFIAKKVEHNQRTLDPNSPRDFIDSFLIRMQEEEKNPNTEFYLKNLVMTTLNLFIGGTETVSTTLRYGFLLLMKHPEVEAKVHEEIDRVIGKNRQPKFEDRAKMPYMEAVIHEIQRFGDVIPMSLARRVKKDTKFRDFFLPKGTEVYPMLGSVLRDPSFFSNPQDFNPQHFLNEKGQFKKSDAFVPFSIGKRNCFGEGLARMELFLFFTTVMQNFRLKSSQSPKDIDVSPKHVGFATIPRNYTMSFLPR
# Study 3 = conditions: human, in vivo, 25 mg
# CYP3A4 [21] = assay: Study 3
# CYP2D6 [22] = target: T1, CYP2D6; assay: Direct inhibition of CYP2D6
# [23] = midazolam 2 mg + esmethadone 25 mg, mean ± SD
# [24] = midazolam 2 mg alone, mean ± SD
# [25] = midazolam + esmethadone vs midazolam alone
# [26] = mRNA levels EC50, donor 1, 72 h
# [27] = mRNA levels EC50, donor 2, 72 h
# [28] = mRNA levels EC50, donor 3, 72 h
# [29] = IC50,u (IC50 unbound), HLM, corrected for fraction unbound
compound,measurement,setting,value
OCc1ncc2n1-c1ccc(Cl)cc1C(c1ccccc1F)=NC2 [1′-hydroxymidazolam],Cmax,"CYP3A4 [1]; midazolam 2 mg + esmethadone 25 mg (day 19, after repeated dosing), mean ± SD","13,100 ± 4930 pg/mL"
same,AUC0–inf,CYP3A4 [1]; [23],"42,700 ± 15100 h*pg/mL"
same,AUC0–t,CYP3A4 [1]; [23],"41,100 ± 14,500 h*pg/mL"
same,Tmax,"CYP3A4 [1]; midazolam 2 mg + esmethadone 25 mg, median (range)",0.925 (0.500–2.00)* h
same,AUC0–inf,CYP3A4 [1]; [24],"11,600 ± 8260 h*pg/mL"
same,AUC0–t,CYP3A4 [1]; [24],"10,700 ± 7360 h*pg/mL"
same,Tmax,"CYP3A4 [1]; midazolam 2 mg alone, median (range)",0.500 (0.500–0.750) h
same,Cmax,"CYP3A4 [1]; midazolam 2 mg oral alone (day 1), plasma, mean ± SD",5440 ± 3520 pg/mL
same,Increase of AUC by esmethadone,CYP3A4 [1]; [25],3.84 fold and 3.8 fold
same,Increase of Cmax by esmethadone,CYP3A4 [1]; [25],2.4 fold
COc1ccc2c(c1)[C@]13CCCC[C@@H]1[C@H](C2)N(C)CC3 [dextromethorphan],CL/F,CYP2D6 [2]; dextromethorphan 30 mg + esmethadone 75 mg,907 ± 715 L/h
same,CL/F,CYP2D6 [2]; dextromethorphan 30 mg alone,4560 ± 3280 L/h
same,Increase of exposure (AUC) by esmethadone,CYP2D6 [2],2.71 fold
same,AUC(0-inf),"CYP2D6 [2]; human, plasma, oral, 30 mg",31.2 ng·h/mL
same,AUC(0-t),"CYP2D6 [2]; human, plasma, oral, 30 mg",26.6 ng·h/mL
same,Tmax,"CYP2D6 [2]; human, plasma, oral, 30 mg",2.5 h
same,Vd/F,"CYP2D6 [2]; human, plasma, oral, 30 mg",39000 L
same,half-life,"CYP2D6 [2]; human, plasma, oral, 30 mg",429 ± 197 min
same,Cmax,"CYP2D6 [2]; human, plasma, 30 mg",2.2 ± 3.8 ng/mL
CN1CC[C@@]23CCCC[C@@H]2[C@@H]1Cc1ccc(O)cc13 [dextrorphan],Increase of exposure (AUC) by esmethadone,CYP2D6 [2],3.11 fold
same,AUC(0-inf),"CYP2D6 [2]; human, plasma, oral, 30 mg",27.2 ng·h/mL
same,AUC(0-t),"CYP2D6 [2]; human, plasma, oral, 30 mg",26.3 ng·h/mL
same,half-life,"CYP2D6 [2]; human, plasma, oral, 30 mg",338 ± 298 min
same,Cmax,"CYP2D6 [2]; human, plasma, 30 mg",4.9 ± 2.62 ng/mL
CCC(=O)C(C[C@H](C)N(C)C)(c1ccccc1)c1ccccc1 [esmethadone],EC50 at 72 h,CYP1A2 [3]; [26],25.7 µM
same,EC50 at 72 h,CYP1A2 [3]; [27],3.75 µM
same,EC50 at 72 h,CYP1A2 [3]; [28],26.3 µM
same,EC50 at 72 h,CYP2B6 [4]; [26],4.3 µM
same,EC50 at 72 h,CYP2B6 [4]; [27],5.36 µM
same,EC50 at 72 h,CYP2B6 [4]; [28],4.12 µM
same,EC50 at 72 h,CYP2C8 [5]; [26],2.85 µM
same,EC50 at 72 h,CYP2C8 [5]; [28],5.27 µM
same,EC50 at 72 h,CYP2C9 [6]; [26],1.05 µM
same,EC50 at 72 h,CYP2C9 [6]; [28],18.1 µM
same,Increase of CYP3A4 enzyme activity,CYP3A4 [7],5.2 ± 4.8 fold
same,Increase of CYP3A4 mRNA,CYP3A4 [7],21.4 ± 1.1 fold
same,IC50,OCT1,1670 nM
same,IC50,P-glycoprotein (P-gp),9.28 µM
same,Fecal excretion of the component,Study 1,no fecal excretion
same,Percent of the total plasma radioactivity exposure through 24 h post-dose,Study 1,70.4%
same,Radioactivity excreted in urine,Study 1,53.9 % of the dose
same,Mean exposure (AUC0.5–24) in plasma,Study 1; healthy male subjects,1200 ng eq. h/g
same,Urinary excretion of the component,Study 1; mean across subjects,13 % of the dose
same,Conclusion (inhibitory activity),CYP1A2 [8],No
same,Conclusion (inhibitory activity),CYP2B6 [9],Yes
same,Conclusion (inhibitory activity),CYP2C8 [10],Yes
same,Conclusion (inhibitory activity),CYP2C9 [11],Yes
same,Conclusion (inhibitory activity),CYP2C19 [12],Yes
same,"Cmax,u, maximal unbound concentration in plasma at steady state",[13],0.587 µM
same,IC50,CYP2B6 [14],> 200 µM
same,IC50,CYP2C8 [15],> 200 µM
same,IC50,CYP2C9 [16],> 200 µM
same,IC50,"CYP2C19 [17]; IC50, HLM",174 µM
same,IC50,CYP2C19 [17]; [29],150 µM
same,IC50,[18],139 µM
same,Conclusion (inhibitory activity),[18]; Supersomes,Yes
same,Tolerability,[19],well tolerated
same,IC50,UGT1A1,> 200 µM
same,Conclusion (inhibitory activity),UGT1A1; HLM,Yes
same,IC50,UGT1A3,> 200 µM
same,Conclusion (inhibitory activity),UGT1A3; HLM,Yes
same,IC50,UGT1A4,> 200 µM
same,Conclusion (inhibitory activity),UGT1A4; HLM,Yes
same,Conclusion (inhibitory activity),UGT1A6,No
same,IC50,UGT1A9,> 200 µM
same,Conclusion (inhibitory activity),UGT1A9; HLM,Yes
same,IC50,UGT2B7,> 200 µM
same,Conclusion (inhibitory activity),UGT2B7; HLM,Yes
same,Stability under equilibrium dialysis testing conditions,[20],stable
same,IC50,CYP2A6,> 200 µM
same,Conclusion (inhibitory activity),"CYP2A6; HLM, esmethadone 0.2–200 μM",Yes
same,Tmax,Study 3,3 h
same,"Maximum observed concentration (text, concentration–time profiles)",CYP3A4 [21]; esmethadone 25 mg co-administered with cobicistat,130 ± 22.5 ng/mL
same,Increase of total exposure (AUC0–inf) by cobicistat,CYP3A4 [21]; esmethadone + cobicistat vs alone,32%
same,AUC(0-inf),"CYP3A4 [21]; human, in vivo, 25 mg",4430 ± 1370 ng·h/mL
same,AUC(0-t),"CYP3A4 [21]; human, in vivo, 25 mg",4100 ± 1210 ng·h/mL
same,Cmax,"CYP3A4 [21]; human, in vivo, po, 25 mg",131 ± 31.5 ng/mL
same,Effect of esmethadone on CYP3A4 activity,"CYP3A4 [1]; clinical, esmethadone 25 mg once daily",negligible effect
same,CYP2D6 inhibitor category (FDA guidelines),"CYP2D6 [2]; clinical, esmethadone 75 mg loading dose",moderate inhibitor of CYP2D6
same,Type of inhibition,CYP2D6 [22]; HLM,mixed (competitive and non-competitive) inhibition
same,Conclusion (inhibitory activity),"CYP2D6 [22]; HLM, esmethadone 0.2–200 μM",Yes
same,IC50,"CYP2D6 [22]; IC50, HLM, dextromethorphan O-demethylase",9.6 µM and 9.63 µM
same,IC50,CYP2D6 [22]; [29],8.28 µM
same,Ki,"CYP2D6 [22]; Ki, HLM, five substrate concentrations 2–50 μM",2020 nM
same,Ki,"CYP2D6 [22]; Ki,u (unbound Ki), HLM, corrected for fraction unbound",1740 nM
CCC(=O)C(C[C@@H](C)N(C)C)(c1ccccc1)c1ccccc1 [levomethadone],Time to maximum observed concentration (Tmax),[13]; oral methadone,3 h
CCC(=O)C(CC(C)N(C)C)(c1ccccc1)c1ccccc1 (centres unmarked) [methadone],Higher concentration associated with a single nucleotide polymorphism of P-gp,[13],32.9%
same,"Oral bioavailability, inter-subject range",[13],36–100%
same,Oral bioavailability,[13]; similar for the two enantiomers,70–80%
"Cc1ncc2n1-c1ccc(Cl)cc1C(c1ccccc1F)=NC2 [midazolam, reference compound]",AUC(0-inf),"CYP3A4 [1]; human, in vivo, 2 mg",26.8 ng·h/mL
same,AUC(0-t),"CYP3A4 [1]; human, in vivo, 2 mg",25.5 ng·h/mL
same,Tmax,"CYP3A4 [1]; human, in vivo, 2 mg",30 min
same,Vd/F,"CYP3A4 [1]; human, in vivo, 2 mg",571 ± 182 L
same,half-life,"CYP3A4 [1]; human, in vivo, 2 mg",307 ± 115 min
same,Cmax,"CYP3A4 [1]; human, in vivo, po, 2 mg",11500 pg/mL
same,CL/F,CYP3A4 [1]; [23],84.5 ± 27.5 L/h
same,CL/F,CYP3A4 [1]; [24],83.8 ± 27.9 L/h
oxy-esmethadone glucuronide,Percent of the total plasma radioactivity exposure through 24 h post-dose,Study 1,0.473%
